Measurements published in US20080108685A1, “Novel Use for Alpha Sympathomimetics Having a 2-Imidazoline Structure” (priority 2004, published 2008).
Like-named read-outs stand apart in the source and are kept apart here.

What was measured:
HRV 14 [1] = assay: plaque reduction assay, HeLa cells infected with HRV 14; type: cell-based, human rhinovirus; settings: for Plaque reduction rel. inhibition: HRV 14, HeLa cells, M.O.I. 0.0004; for Rel. total inhibition: HRV 14, plaque reduction and residual infectiousness combined
HRV 14 [2] = assay: residual infectiousness (TCID50/ml) by virus titration, HeLa cells infected with HRV 14; type: cell-based, human rhinovirus; settings: HRV 14, HeLa cells
HRV 14 [3] = assay: high-throughput cytopathic effect inhibitory assay (CPE), HeLa cells infected with HRV 14; type: cell-based, human rhinovirus; settings: HRV 14, HeLa cells, second series of experiments
HRV 2 = type: cell-based, human rhinovirus; settings: HRV 2, HeLa cells, 72 hours after infection
influenza A virus = type: cell-based; settings: MDCK cells
MDCK cells = settings: dog
[4] = dilution 1:2 of 0.003125% (W/V)
[5] = dilution 1:4 of 0.003125% (W/V)
[6] = dilution 1:8 of 0.003125% (W/V)
[7] = dilution 1:16 of 0.003125% (W/V)
[8] = dilution 1:32 of 0.003125% (W/V)

Cc1cc(C(C)(C)C)c(O)c(C)c1CC1=NCCN1 [oxymetazoline]
Plaque reduction rel. inhibition (HRV 14 [1]; [4]): 44.26%
Plaque reduction rel. inhibition (HRV 14 [1]; [5]): 32.98%
Plaque reduction rel. inhibition (HRV 14 [1]; [6]): 25.74%
Plaque reduction rel. inhibition (HRV 14 [1]; [7]): 17.66%
Plaque reduction rel. inhibition (HRV 14 [1]; [8]): 14.26%
Rel. total inhibition (HRV 14 [1]; [4]): 38.79
Rel. total inhibition (HRV 14 [1]; [5]): 26.91
Rel. total inhibition (HRV 14 [1]; [6]): 22.25
Rel. total inhibition (HRV 14 [1]; [7]): 18.20
Rel. total inhibition (HRV 14 [1]; [8]): 13.38
Residual infectiousness rel. inhibition (HRV 14 [2]; [4]): 33.33%
Residual infectiousness rel. inhibition (HRV 14 [2]; [5]): 20.83%
Residual infectiousness rel. inhibition (HRV 14 [2]; [6]): 18.75%
Residual infectiousness rel. inhibition (HRV 14 [2]; [7]): 18.75%
Residual infectiousness rel. inhibition (HRV 14 [2]; [8]): 12.50%
CPE inhibition (HRV 14 [3]; [4]): 50.5%
CPE inhibition (HRV 14 [3]; [5]): 53.6%
CPE inhibition (HRV 14 [3]; [6]): 37.5%
CPE inhibition (HRV 14 [3]; [7]): 5.9%
CPE inhibition (HRV 2; [4]): 40.5%
CPE inhibition (HRV 2; [5]): 23.2%
CPE inhibition (influenza A virus; dilution 1:2 of 0.005% (W/V)): 52.8%
CPE inhibition (influenza A virus; dilution 1:4 of 0.005% (W/V)): 35.5%
CPE inhibition (influenza A virus; dilution 1:8 of 0.005% (W/V)): 23.1%
CPE inhibition (influenza A virus; dilution 1:16 of 0.005% (W/V)): 9.1%
active-ingredient concentration at which no effects which reduce the metabolism of the cells arise (non-cytotoxic concentration) (MDCK cells): 0.005 % (W/V)
